Assay results published in patent US20050053647A1, “Pharmaceutical product comprising the active substance diamorphine, and its use in a process for treating opiate addiction” (priority 1999, published 2005).
In brackets after ≈: the same amount, converted by molar mass.

Experiments:
[1] = In vitro skin permeation from TTS, nude guinea pig skin model; type: in vitro ADME
Procedure: Diamorphine is determined as total of heroin+morphine metabolite.

[2] = test system: heroin addicts; conditions: cited from earlier work
[3] = Saturation solubility of diamorphine base in solvents
[4] = Rate of hydrolytic breakdown of diamorphine base in solvents (diamorphine content over time); conditions: for Diamorphine content: area percentages

## CC(=O)Oc1ccc2c3c1O[C@H]1[C@@H](OC(C)=O)C=C[C@H]4[C@@H](C2)N(C)CC[C@@]341 [diamorphine base, diamorphine]
[1]; TTS matrix of same base formulation and loading, citrate buffer pH=3.0 + 0,1% NaN3, T=37° C., diamorphine determined as total of heroin + morphine metabolite
  Skin passage in relation to morphine and buprenorphine: better skin passage
[1]; nude guinea pig skin, TTS of identical formulation, in some cases
  Skin flux in flow equilibrium (permeation rate) compared with morphine and buprenorphine: markedly higher
[2]; state-controlled administration, intravenous or pulmonary (cigarettes), 969 heroin addicts
  State of health of the heroin addicts: Marked improvements
[3]; Benzyl nicotinate, organic solvent or mixture
  solubility: 23.2 mg/mL (≈ 62.8 mM)
[3]; Benzyl nicotinate/Vitamin E 1:1, organic solvent or mixture
  solubility: 17.7 mg/mL (≈ 47.9 mM)
[3]; Dimethylisosorbide, organic solvent or mixture
  solubility: 12.8 mg/mL (≈ 34.6 mM)
[3]; Dimethylisosorbide/Vitamin E 1:1, organic solvent or mixture
  solubility: 9.82 mg/mL (≈ 26.6 mM)
[3]; Lemon oil, oil or lipid
  solubility: 10.3 mg/mL (≈ 27.9 mM)
[3]; Lemon oil/Vitamin E 1:1, oil or lipid
  solubility: 8 mg/mL (≈ 21.7 mM)
[3]; N-Methylpyrrolidone, organic solvent or mixture
  solubility: 32.2 mg/mL (≈ 87.2 mM)
[3]; N-Methylpyrrolidone/Vitamin E 1:1, organic solvent or mixture
  solubility: 24.8 mg/mL (≈ 67.1 mM)
[3]; Oleic acid, oil or lipid
  solubility: 22.6 mg/mL (≈ 61.2 mM)
[3]; Oleic acid/Vitamin E 1:1, oil or lipid
  solubility: 17.2 mg/mL (≈ 46.6 mM)
[3]; R-(+)-Limonene, organic solvent or mixture
  solubility: 25.1 mg/mL (≈ 67.9 mM)
[3]; R-(+)-Limonene/Vitamin E 1:1, organic solvent or mixture
  solubility: 19 mg/mL (≈ 51.4 mM)
[3]; Tween 80, organic solvent or mixture
  solubility: 5.81 mg/mL (≈ 15.7 mM)
[3]; Tween 80/Vitamin E 1:1, organic solvent or mixture
  solubility: 4.45 mg/mL (≈ 12 mM)
[3]; Vitamin E, oil or lipid
  solubility: 1.62 mg/mL (≈ 4.39 mM)
[4]; combinations of vitamin E with solvent (Table 1)
  Effect of combinations of vitamin E with a further aprotic solvent on the rate of hydrolytic breakdown: surprisingly positive stabilizing effect
[4]; solvent Benzyl nicotinate/Vitamin E 1:1, t = 0.5 h
  Diamorphine content: 99.2%
[4]; solvent Benzyl nicotinate/Vitamin E 1:1, t = 24 h
  Diamorphine content: 99.0%
[4]; solvent Benzyl nicotinate, t = 0.5 h
  Diamorphine content: 97.8%
[4]; solvent Benzyl nicotinate, t = 24 h
  Diamorphine content: 86.5%
[4]; solvent Dimethylisosorbide/Vitamin E 1:1, t = 0.5 h
  Diamorphine content: 100%
[4]; solvent Dimethylisosorbide/Vitamin E 1:1, t = 24 h
  Diamorphine content: 99.8%
[4]; solvent Dimethylisosorbide, t = 0.5 h
  Diamorphine content: 98.5%
[4]; solvent Dimethylisosorbide, t = 24 h
  Diamorphine content: 93.5%
[4]; solvent Lemon oil/Vitamin E 1:1, t = 0.5 h
  Diamorphine content: 99.1%
[4]; solvent Lemon oil/Vitamin E 1:1, t = 24 h
  Diamorphine content: 98.9%
[4]; solvent Lemon oil, t = 0.5 h
  Diamorphine content: 93.5%
[4]; solvent Lemon oil, t = 24 h
  Diamorphine content: 80.5%
[4]; solvent N-Methylpyrrolidone/Vitamin E 1:1, t = 0.5 h
  Diamorphine content: 99.8%
[4]; solvent N-Methylpyrrolidone/Vitamin E 1:1, t = 24 h
  Diamorphine content: 99.7%
[4]; solvent N-Methylpyrrolidone, t = 0.5 h
  Diamorphine content: 97.8%
[4]; solvent N-Methylpyrrolidone, t = 24 h
  Diamorphine content: 87.8%
[4]; solvent Oleic acid/Vitamin E 1:1, t = 0.5 h
  Diamorphine content: 99.6%
[4]; solvent Oleic acid/Vitamin E 1:1, t = 24 h
  Diamorphine content: 99.6%
[4]; solvent Oleic acid, t = 0.5 h
  Diamorphine content: 97.4%
[4]; solvent Oleic acid, t = 24 h
  Diamorphine content: 90.3%
[4]; solvent R-(+)-Limonene/Vitamin E 1:1, t = 0.5 h
  Diamorphine content: 99.7%
[4]; solvent R-(+)-Limonene/Vitamin E 1:1, t = 24 h
  Diamorphine content: 99.6%
[4]; solvent R-(+)-Limonene, t = 0.5 h
  Diamorphine content: 96.7%
[4]; solvent R-(+)-Limonene, t = 24 h
  Diamorphine content: 87.7%
[4]; solvent Tween 80/Vitamin E 1:1, t = 0.5 h
  Diamorphine content: 100%
[4]; solvent Tween 80/Vitamin E 1:1, t = 24 h
  Diamorphine content: 100%
[4]; solvent Tween 80, t = 0.5 h
  Diamorphine content: 99%
[4]; solvent Tween 80, t = 24 h
  Diamorphine content: 93.4%
[4]; solvent Vitamin E, t = 0.5 h
  Diamorphine content: 100%
[4]; solvent Vitamin E, t = 24 h
  Diamorphine content: 100%

## CCC(=O)C(CC(C)N(C)C)(c1ccccc1)c1ccccc1 (centres unmarked) [methadone]
[2]; even on intravenous administration, Swiss experiment
  Therapy of heroin dependents compared with heroin: inferior to heroin
